Paper PMC7156458, “Synthetic biology based construction of biological activity-related library of fungal decalin-containing diterpenoid pyrones” (Nature Communications, 2020)
Read-outs that look alike come from different tables or passages of the source.

Tests used:
[1] = test system: DL1 cells; experiment: cytotoxicity in Drosophila DL1 cells; format: cell-based; conditions: DL1 cells; for IC50: Drosophila melanogaster, cytotoxicity
Protocol: (§1) We screened the DDPs on the Drosophila assay system for cytotoxicity, inhibitory activity of innate immune signalling and insecticidal activity. The cytotoxicity of the DDPs was evaluated using two cell lines, embryonic macrophage-derived DL1 cells[58]–[60] and larval blood cell-derived l(2)mbn cells, and their IC50 values are listed in Supplementary Table 23.

[2] = cytotoxicity in Drosophila DL1 cells; format: cell-based; conditions: Drosophila, DL1 cells (embryonic macrophage-derived), DL1 cells
Protocol: as §1

[3] = test system: l(2)mbn cells; experiment: cytotoxicity in Drosophila l(2)mbn cells; format: cell-based; conditions: for Luminescence Raw1: replicate 1; for Luminescence Raw2: replicate 2; for IC50: Drosophila melanogaster, cytotoxicity
Protocol: as §1

[4] = cytotoxicity in Drosophila l(2)mbn cells; format: cell-based; conditions: Drosophila, l(2)mbn cells (larval blood cell-derived)
Protocol: as §1

[5] = test system: human immunodeficiency virus-1 (HIV-1); experiment: anti-HIV MAGI assay; format: cell-based; conditions: Human immunodeficiency virus 1, MAGI, anti-HIV, MAGI assay; read-out: EC50
Description: We examined the inhibitory activities of DDPs against various species of bacteria (both gram-negative and gram-positive bacteria), fungi and viruses. […] In contrast, preliminary screening of the DDPs for anti-viral agents with hepatitis B virus (HBV), measles virus (MV), Epstein-Barr virus (EBV), herpes simplex virus (HSV) and human immunodeficiency virus-1 (HIV-1) indicated their selective inhibition of HIV.

[6] = test system: MCF-7 cells; experiment: cell cytotoxic effects against MCF-7 cells (72 h), A490; format: cell-based, human; conditions: MCF-7, 72 h
Protocol: !" ' ' '! !" ' ' '! !" ' ' '!!" ' ' '!!" ' ' '!!" ' ' '!!" ' ' '!!" ' ' '! !" ' ' '! !" ' ' '! !" ' ' '! !"#$
( % ) * '! '' '# '+ '$ '( '%
! " # $ %& %% %' %( %) %! %"
!" ' ' '! !" ' ' '!!" ' ' '!!" ' ' '!!" ' ' '!!" ' ' '!!" ' ' '! !" ' ' '! !" ' ' '! !" ' ' '! !" ' ' '! […]
Supplementary Fig. 46. a, Cell cytotoxic effects of DDPs against MCF-7 cells (72 h).
dose dependent cytotoxic effects against MCF-7 cells were tested their inhibitory activity against mammosphere
formation. Compound in blue (16) was also performed mammosphere assay as negative control. Data represent
mean±s.d. from three independent replicate experiments. […]
Source data underlying Supplementary Figure 46a are provided in a Source Data file. […]

[7] = average of two replicates, read-out: IC50 Average
[8] = replicate 1, read-out: IC50 (1)
[9] = replicate 2, read-out: IC50 (2)
[10] = replicate 1, relative to DMSO 1%, read-out: % viability, viability 1
[11] = replicate 2, relative to DMSO 1%, read-out: % viability, viability 2

With `C=C1CC[C@H]2[C@]3(C)C[C@H](C=C(C)C)O[C@H]3CC[C@]2(C)[C@@H]1Cc1c(OC)oc(C)c(C)c1=O` [Compound 24] the “Luminescence Raw1” value ([1]; 0.04 µM, replicate 1) was 2516748, the “Luminescence Raw2” value ([1]; 0.04 µM, replicate 2) was 2332079 and the “Luminescence Raw1” value ([1]; 0.2 µM, replicate 1) was 850222. For the same compound, the “Luminescence Raw2” value ([1]; 0.2 µM, replicate 2) was 975712, the “Luminescence Raw1” value ([1]; 1 µM, replicate 1) was 178460 and the “Luminescence Raw2” value ([1]; 1 µM, replicate 2) was 208026. For the same compound, the “Luminescence Raw1” value ([1]; 4 µM, replicate 1) was 158268, the “Luminescence Raw2” value ([1]; 4 µM, replicate 2) was 147451 and the “Luminescence Raw1” value ([1]; 10 µM, replicate 1) was 159710. The “Luminescence Raw2” value ([1]; 10 µM, replicate 2) was 170888, the “Luminescence Raw1” value ([1]; 20 µM, replicate 1) was 153581 and the “Luminescence Raw2” value ([1]; 20 µM, replicate 2) was 168364. For the same compound, the IC50 [1, 7] was 242 nM, the IC50 ([1]; average±SEM, read-out: IC50) was 240 ± 10 nM and the IC50 [1, 8] was 237 nM. For the same compound, the IC50 [1, 9] was 248 nM, the viability at 0.04 µM [2, 10] was 122% and the viability at 0.04 µM [2, 11] was 113%. The viability at 0.2 µM [2, 10] was 41.3%, the viability at 0.2 µM [2, 11] was 47.4% and the viability at 1 µM [2, 10] was 8.66%. For the same compound, the viability at 1 µM [2, 11] was 10.1%, the viability at 4 µM [2, 10] was 7.68% and the viability at 4 µM [2, 11] was 7.16%. The viability at 10 µM [2, 10] was 7.75%, the viability at 10 µM [2, 11] was 8.3% and the viability at 20 µM [2, 10] was 7.46%. The viability at 20 µM [2, 11] was 8.17%, the “Luminescence Raw1” value ([3]; 0.04 µM) was 3470038 and the “Luminescence Raw2” value ([3]; 0.04 µM) was 2834452. The “Luminescence Raw1” value ([3]; 0.2 µM) was 3507915, the “Luminescence Raw2” value ([3]; 0.2 µM) was 3346307 and the “Luminescence Raw1” value ([3]; 1 µM) was 3332960. The “Luminescence Raw2” value ([3]; 1 µM) was 3138530, the “Luminescence Raw1” value ([3]; 4 µM) was 267094 and the “Luminescence Raw2” value ([3]; 4 µM) was 217335. For the same compound, the “Luminescence Raw1” value ([3]; 10 µM) was 164693, the “Luminescence Raw2” value ([3]; 10 µM) was 160006 and the “Luminescence Raw1” value ([3]; 20 µM) was 170462. For the same compound, the “Luminescence Raw2” value ([3]; 20 µM) was 154958, the IC50 [3, 7] was 3040 nM and the IC50 ([3]; average±SEM, read-out: IC50) was 3040 ± 160 nM. It also gave an IC50 [3, 8] of 3200 nM, an IC50 [3, 9] of 2880 nM and a viability at 0.04 µM [4, 10] of 135%. The viability at 0.04 µM [4, 11] was 110%, the viability at 0.2 µM [4, 10] was 137% and the viability at 0.2 µM [4, 11] was 130%. The viability at 1 µM [4, 10] was 130%, the viability at 1 µM [4, 11] was 122% and the viability at 4 µM [4, 10] was 10.4%. For the same compound, the viability at 4 µM [4, 11] was 8.47%, the viability at 10 µM [4, 10] was 6.42% and the viability at 10 µM [4, 11] was 6.23%. It also gave a viability at 20 µM [4, 10] of 6.64%, a viability at 20 µM [4, 11] of 6.04% and an EC50 [5] of less than 200 nM. It also gave a viability at 0.1 µM ([6]; Homo sapiens, MCF7, 72 h, 0.1 µM (DMSO 0.002%), read-out: A490 (control =1) ave) of 64%, a viability at 1 µM ([6]; Homo sapiens, MCF7, 72 h, 1 µM (DMSO 0.02%), read-out: A490 (control =1) ave) of 76.3% and a viability at 10 µM ([6]; Homo sapiens, MCF7, 72 h, 10 µM (DMSO 0.2%), read-out: A490 (control =1) ave) of 12.6%. For the same compound, the A490 ave ([6]; 0.1 µM (DMSO 0.002%), control 1.064) was 0.680, the A490 ave ([6]; 1 µM (DMSO 0.02%), control 1.104) was 0.843 and the A490 ave ([6]; 10 µM (DMSO 0.2%), control 1.049) was 0.132.
